Results as given in PMC9452538, “The antimicrobial peptide LI14 combats multidrug-resistant bacterial infections” (Communications Biology, 2022).
In brackets after ≈: the same amount, converted by molar mass. Peptide text beside a SMILES is read from it.

Assays:
[1] = tested on: S. aureus ATCC 29213, MRSA T144, E. coli ATCC 25922, E. coli B2; experiment: Time-killing assay; type: cell-based; details: MHB
Experimental: Bacteria from the exponential phase were diluted into MHB at 1:1,000, and bacteria suspensions (~10^5 CFUs/mL for Gram-positive bacteria, ~10^6 CFUs/mL for Gram-negative bacteria) were mixed with various concentrations of LI14 peptide and incubated at 37 °C for 0.5, 1, 2, 4, and 12 h, respectively. At intervals, samples were serially diluted ten-fold and plated on MHA plates. The amount of primary CFUs/mL was determined after overnight incubation of bacterial colonies.

E. coli ATCC 25922 [2] = experiment: microbe, parasite or virus in culture; type: cell-based, Escherichia coli; details: ATCC 25922
Outline: (§1)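 Bacteria are grown to exponential phase, diluted 1:1000 in MHB, then combined at 1.5 × 10^6 CFUs/mL with different peptide concentrations. MICs follow standard CLSI2021 broth micro-dilution.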

[3] = tested on: E. coli B2 (blaNDM-5 + mcr-1); experiment: microbe, parasite or virus in culture; type: cell-based, Escherichia coli; details: B2 (blaNDM-5 + mcr-1)
Outline: as §1

MRSA T144 persisters = experiment: Bactericidal activity against persisters; type: cell-based, Staphylococcus aureus; details: within 2 h
Experimental: Briefly, the bacteria suspensions after washing were exposed to 50-fold MIC concentrations of vancomycin and tigecycline, respectively, and co-incubation for 4 h to obtain persister cells. […] Subsequently, the primary CFUs/mL were calculated.

[4] = tested on: MRSA T144 and E. coli B2 established biofilms; experiment: Treatment of established biofilms; type: cell-based; details: 128 μg/mL LI14, 2 h
Experimental: In MHB medium, a mid-logarithmic growth-phase culture was diluted to 10^6 CFUs/ml. A 96-well flat bottom plate was filled with 100 μL of this bacterial suspension per well, which was cultured at 37 °C for 36 h to create mature biofilms. […] Plates were sonicated for 10 min after incubation to remove adhering bacteria, and the number of live bacteria was counted microbiologically.

[5] = tested on: P. cibarius HNCF44W (blaNDM-1 + tet(X6)); experiment: organism not typed; type: cell-based
Outline: as §1

A. baumannii ATCC 19609 = experiment: microbe, parasite or virus in culture; type: cell-based, Acinetobacter baumannii; details: ATCC 19609
Outline: as §1

[6] = tested on: A. baumannii C222 (tet(X6)); experiment: microbe, parasite or virus in culture; type: cell-based, Acinetobacter baumannii; details: C222 (tet(X6))
Outline: as §1

E. coli ATCC 25922 [7] = experiment: Resistance development study, serial passages; type: cell-based, Escherichia coli; details: 80 serial passages at sub-inhibitory concentration (0.5-fold MIC)
Experimental: The ability of LI14 peptide to induce resistance was studied as previously described. Resistance to the therapeutically important drugs rifampicin and ciprofloxacin was measured using S. aureus ATCC 29213 and E. coli ATCC 25922 as test strains. The middle and final MICs were monitored after eighty such serial passages exposed to the tested medicines (0.5-fold MIC), and the fold change in MIC increase was recorded.

MRSA T144 = experiment: Neutropenic mouse thigh infection model; type: in vivo, CD-1 mice; details: 48 h; for Reduction in CFUs in thigh compared with vehicles: n = 6
Experimental: (§2) Female CD-1 mice (n = 6 biologically independent animals per group) were first given cyclophosphamide (two consecutive injections of 150 and 100 mg kg^−1 at 4 and 1 day before infection) to construct neutropenia models. The mice’s right thighs were then injected with 100 μL MRSA T144 or E. coli B2 suspensions (10^5 CFUs per mouse). Post-infection of 1 h, 100 μL LI14 peptide (10 or 20 mg/kg), ampicillin/rifampicin (20 mg/kg) or a combination of LI14 with ampicillin/ rifampicin (10 + 20 mg/kg) were given by intraperitoneal injection. All mice were euthanized 48 h after drug administration, and right thigh muscle tissue was removed aseptically, homogenized, serially diluted, and plated on MHA to qualify bacterial loads after overnight incubation at 37 °C.

E. coli B2 = experiment: Neutropenic mouse thigh infection model; type: in vivo, CD-1 mice; details: 48 h; for Reduction in CFUs in thigh compared with vehicles: n = 6
Experimental: as §2

P. aeruginosa PA14 = experiment: microbe, parasite or virus in culture; type: cell-based, Pseudomonas aeruginosa; details: PA14
Outline: as §1

SMILES: CC[C@H](C)[C@H](NC(=O)[C@H](CCCNC(=N)N)NC(=O)[C@H](CS)NC(=O)[C@H](CC(C)C)NC(=O)[C@H](CCCCN)NC(=O)[C@H](CCCCN)NC(=O)[C@H](CC(C)C)NC(=O)[C@@H](NC(=O)[C@H](CCCNC(=N)N)NC(=O)[C@H](CS)NC(=O)[C@H](CC(C)C)NC(=O)[C@H](CCCCN)NC(=O)[C@H](CCCCN)NC(=O)[C@@H](N)CC(C)C)[C@@H](C)CC)C(N)=O [LI14] (H-LKKLCRILKKLCRI-NH2)
- Killing of the tested strains at 12 h ([1]; 8 μg/mL LI14, three tested strains, except for MRSA T144): completely eliminate
- Time to eliminate all E. coli strains ([1]; 32 μg/mL LI14, ~10^6 CFUs/mL, 37 °C): ≤ 0.5 h
- MIC (E. coli ATCC 25922 [2]): 8 µg/mL (≈ 4.63 µM)
- MIC [3]: 4 µg/mL
- Clearance rate against persisters (MRSA T144 persisters): above 99%
- Eradication of established biofilms [4]: almost eradicated all established biofilms
- MIC [5]: 8 µg/mL (≈ 4.63 µM)
- MIC (A. baumannii ATCC 19609): 8 µg/mL (≈ 4.63 µM)
- MIC [6]: 16 µg/mL (≈ 9.26 µM)
- Increase in MIC after serial passages (E. coli ATCC 25922 [7]): 8 fold
- Bacterial load in thigh (MRSA T144; LI14 10 mg/kg i.p., animal 1): 6.18 Log10CFUs/thigh
- Bacterial load in thigh (MRSA T144; LI14 10 mg/kg i.p., animal 2): 6.30 Log10CFUs/thigh
- Bacterial load in thigh (MRSA T144; LI14 10 mg/kg i.p., animal 3): 5.92 Log10CFUs/thigh
- Bacterial load in thigh (MRSA T144; LI14 10 mg/kg i.p., animal 4): 5.83 Log10CFUs/thigh
- Bacterial load in thigh (MRSA T144; LI14 10 mg/kg i.p., animal 5): 7.15 Log10CFUs/thigh
- Bacterial load in thigh (MRSA T144; LI14 10 mg/kg i.p., animal 6): 7.28 Log10CFUs/thigh
- Reduction in CFUs in thigh compared with vehicles (MRSA T144; LI14 10 mg/kg i.p.): ~ 2 log10
- Bacterial load in thigh (MRSA T144; LI14 20 mg/kg i.p., animal 1): 4.32 Log10CFUs/thigh
- Bacterial load in thigh (MRSA T144; LI14 20 mg/kg i.p., animal 2): 4.36 Log10CFUs/thigh
- Bacterial load in thigh (MRSA T144; LI14 20 mg/kg i.p., animal 3): 4.77 Log10CFUs/thigh
- Bacterial load in thigh (MRSA T144; LI14 20 mg/kg i.p., animal 4): 4.61 Log10CFUs/thigh
- Bacterial load in thigh (MRSA T144; LI14 20 mg/kg i.p., animal 5): 5.45 Log10CFUs/thigh
- Bacterial load in thigh (MRSA T144; LI14 20 mg/kg i.p., animal 6): 5.51 Log10CFUs/thigh
- Reduction in CFUs in thigh compared with vehicles (MRSA T144; LI14 20 mg/kg i.p.): 4 log10
- Bacterial load in thigh (E. coli B2; LI14 10 mg/kg i.p., animal 1): 5.99 Log10CFUs/thigh
- Bacterial load in thigh (E. coli B2; LI14 10 mg/kg i.p., animal 2): 5.91 Log10CFUs/thigh
- Bacterial load in thigh (E. coli B2; LI14 10 mg/kg i.p., animal 3): 6.58 Log10CFUs/thigh
- Bacterial load in thigh (E. coli B2; LI14 10 mg/kg i.p., animal 4): 6.66 Log10CFUs/thigh
- Bacterial load in thigh (E. coli B2; LI14 10 mg/kg i.p., animal 5): 7.36 Log10CFUs/thigh
- Bacterial load in thigh (E. coli B2; LI14 10 mg/kg i.p., animal 6): 7.31 Log10CFUs/thigh
- Reduction in CFUs in thigh compared with vehicles (E. coli B2; LI14 10 mg/kg i.p.): ~ 2 log10
- Bacterial load in thigh (E. coli B2; LI14 20 mg/kg i.p., animal 1): 4.93 Log10CFUs/thigh
- Bacterial load in thigh (E. coli B2; LI14 20 mg/kg i.p., animal 2): 4.99 Log10CFUs/thigh
- Bacterial load in thigh (E. coli B2; LI14 20 mg/kg i.p., animal 3): 4.71 Log10CFUs/thigh
- Bacterial load in thigh (E. coli B2; LI14 20 mg/kg i.p., animal 4): 4.79 Log10CFUs/thigh
- Bacterial load in thigh (E. coli B2; LI14 20 mg/kg i.p., animal 5): 5.69 Log10CFUs/thigh
- Bacterial load in thigh (E. coli B2; LI14 20 mg/kg i.p., animal 6): 5.66 Log10CFUs/thigh
- Reduction in CFUs in thigh compared with vehicles (E. coli B2; LI14 20 mg/kg i.p.): 4 log10
- MIC (P. aeruginosa PA14): 16 µg/mL (≈ 9.26 µM)
